According to the NIST ThermoML archive (doi:10.1016/j.jct.2016.08.022):

Experiment: molar heat capacity at constant pressure
Conditions: 101.33 kPa, Small (less than 1 g) adiabatic calorimetry

CCC(=O)O[C@]1(C(=O)COC(C)=O)CC[C@H]2[C@@H]3C[C@H](C)C4=CC(=O)C=C[C@]4(C)[C@H]3[C@@H](O)C[C@@]21C [Methylprednisolone aceponate]
Conditions	molar heat capacity at constant pressure [J/K/mol]
5 K, Crystal 2	1.87
7.53 K, Crystal 2	6.019
7.84 K, Crystal 2	6.56
8.09 K, Crystal 2	7.014
8.41 K, Crystal 2	7.67
8.68 K, Crystal 2	8.278
9 K, Crystal 2	8.893
9.32 K, Crystal 2	9.535
9.64 K, Crystal 2	10.2
9.98 K, Crystal 2	10.97
10 K, Crystal 2	11
10.31 K, Crystal 2	11.76
10.64 K, Crystal 2	12.47
10.99 K, Crystal 2	13.1
11.33 K, Crystal 2	13.78
11.69 K, Crystal 2	14.32
12.05 K, Crystal 2	15.03
12.88 K, Crystal 2	16.64
14.18 K, Crystal 2	19.38
15 K, Crystal 2	21.09
15.44 K, Crystal 2	22.08
16.83 K, Crystal 2	25.33
18.19 K, Crystal 2	28.78
19.58 K, Crystal 2	32.36
20 K, Crystal 2	33.51
22.18 K, Crystal 2	39.37
25 K, Crystal 2	47.69
25.63 K, Crystal 2	49.56
29.09 K, Crystal 2	59.46
30 K, Crystal 2	61.69
32.6 K, Crystal 2	68.53
36.13 K, Crystal 2	78.23
39.68 K, Crystal 2	88.41
40 K, Crystal 2	89.06
43.24 K, Crystal 2	97.8
46.82 K, Crystal 2	106.2
50 K, Crystal 2	115
50.41 K, Crystal 2	116.3
54 K, Crystal 2	126.6
57.6 K, Crystal 2	136
60 K, Crystal 2	142.6
61.21 K, Crystal 2	145.2
64.82 K, Crystal 2	155
68.42 K, Crystal 2	163.9
70 K, Crystal 2	167.5
72.02 K, Crystal 2	173
75.66 K, Crystal 2	181.2
79.32 K, Crystal 2	190.9
80 K, Crystal 2	193.1
82.52 K, Crystal 2	200.1
82.95 K, Crystal 2	200.9
85.14 K, Crystal 2	206.2
86.58 K, Crystal 2	209.8
87.56 K, Crystal 2	212.6
89.97 K, Crystal 2	218.2
90 K, Crystal 2	218.2
92.39 K, Crystal 2	223.5
94.8 K, Crystal 2	229
97.21 K, Crystal 2	234.8
97.3 K, Crystal 2	235.6
99.62 K, Crystal 2	240.5
100 K, Crystal 2	241.2
100.7 K, Crystal 2	243.6
102.02 K, Crystal 2	245.8
104.08 K, Crystal 2	251
104.42 K, Crystal 2	251.6
106.93 K, Crystal 2	257.8
107.83 K, Crystal 2	258.9
109.22 K, Crystal 2	263
109.71 K, Crystal 2	263.2
110 K, Crystal 2	264.5
111.62 K, Crystal 2	268.1
112.99 K, Crystal 2	270.3
114.02 K, Crystal 2	273.7
116 K, Crystal 2	277
116.42 K, Crystal 2	278.5
118.81 K, Crystal 2	283.7
119.02 K, Crystal 2	283.2
120 K, Crystal 2	286.4
121.2 K, Crystal 2	288.9
122.04 K, Crystal 2	290.1
123.59 K, Crystal 2	295.1
125.06 K, Crystal 2	297.7
125.98 K, Crystal 2	300
128.08 K, Crystal 2	305.6
128.36 K, Crystal 2	306
130 K, Crystal 2	309.4
130.74 K, Crystal 2	310.7
131.09 K, Crystal 1	312.1
133.12 K, Crystal 1	311.6
134.11 K, Crystal 1	310
135.5 K, Crystal 1	309.5
137.13 K, Crystal 1	310.6
137.88 K, Crystal 1	312.2
140 K, Crystal 1	315.4
140.15 K, Crystal 1	315.8
140.25 K, Crystal 1	315.6
142.62 K, Crystal 1	319.4
143.15 K, Crystal 1	320.6
144.98 K, Crystal 1	324.5
146.15 K, Crystal 1	326.3
147.34 K, Crystal 1	328.3
149.14 K, Crystal 1	331.8
149.69 K, Crystal 1	333.1
150 K, Crystal 1	333
152.05 K, Crystal 1	336.9
152.14 K, Crystal 1	336.7
154.41 K, Crystal 1	341
155.13 K, Crystal 1	342
156.76 K, Crystal 1	344
158.09 K, Crystal 1	347.4
159.09 K, Crystal 1	348.8
160 K, Crystal 1	351
161.07 K, Crystal 1	352.5
161.43 K, Crystal 1	353.5
163.77 K, Crystal 1	357.7
164.05 K, Crystal 1	358.2
166.12 K, Crystal 1	361.8
167.01 K, Crystal 1	363.8
168.46 K, Crystal 1	366.9
169.98 K, Crystal 1	368.9
170 K, Crystal 1	368.7
170.8 K, Crystal 1	371.1
172.94 K, Crystal 1	373.7
173.13 K, Crystal 1	375
175.46 K, Crystal 1	378.6
175.89 K, Crystal 1	379.5
177.8 K, Crystal 1	381
178.84 K, Crystal 1	383.9
180 K, Crystal 1	386.3
180.1 K, Crystal 1	385.2
181.78 K, Crystal 1	389.3
182.38 K, Crystal 1	390.4
184.68 K, Crystal 1	394.6
184.72 K, Crystal 1	394.9
186.99 K, Crystal 1	398.4
187.66 K, Crystal 1	399.4
189.31 K, Crystal 1	403.5
190 K, Crystal 1	404
190.59 K, Crystal 1	405.5
191.61 K, Crystal 1	407.4
193.51 K, Crystal 1	410.5
193.93 K, Crystal 1	410.9
196.2 K, Crystal 1	415.5
196.43 K, Crystal 1	414.4
198.49 K, Crystal 1	418.9
199.33 K, Crystal 1	420.1
200 K, Crystal 1	421.8
200.78 K, Crystal 1	422.8
202.47 K, Crystal 1	425.8
203.07 K, Crystal 1	427.7
205.36 K, Crystal 1	432.9
205.78 K, Crystal 1	432.4
207.65 K, Crystal 1	435.8
209.13 K, Crystal 1	438
209.94 K, Crystal 1	439.7
210 K, Crystal 1	439.9
212.24 K, Crystal 1	444.3
212.49 K, Crystal 1	444.8
214.54 K, Crystal 1	448.4
215.85 K, Crystal 1	450.6
217 K, Crystal 1	451.2
219.13 K, Crystal 1	456
219.21 K, Crystal 1	456.5
220 K, Crystal 1	458.2
221.43 K, Crystal 1	460.8
222.56 K, Crystal 1	463.6
223.73 K, Crystal 1	465.6
226.03 K, Crystal 1	469.3
228.32 K, Crystal 1	473.5
230 K, Crystal 1	476.5
230.63 K, Crystal 1	477.8
232.91 K, Crystal 1	481.1
235.22 K, Crystal 1	485.8
237.52 K, Crystal 1	490.6
239.83 K, Crystal 1	495.3
240 K, Crystal 1	494.9
242.15 K, Crystal 1	498.7
244.46 K, Crystal 1	503.6
246.77 K, Crystal 1	507.1
249.09 K, Crystal 1	511.5
250 K, Crystal 1	513.6
251.4 K, Crystal 1	516.4
253.72 K, Crystal 1	521
255.92 K, Crystal 1	524.6
256.03 K, Crystal 1	524.6
258.35 K, Crystal 1	529.7
259.52 K, Crystal 1	530.8
260 K, Crystal 1	532.3
260.9 K, Crystal 1	534.6
262.9 K, Crystal 1	537.3
262.99 K, Crystal 1	536.3
265.31 K, Crystal 1	542.1
266.27 K, Crystal 1	542.9
267.63 K, Crystal 1	546.6
269.63 K, Crystal 1	548.4
269.94 K, Crystal 1	551.7
270 K, Crystal 1	550.2
271.74 K, Crystal 1	553.4
272.99 K, Crystal 1	555.5
274.21 K, Crystal 1	556.6
276.35 K, Crystal 1	562.2
276.54 K, Crystal 1	562
278.86 K, Crystal 1	565.7
279.7 K, Crystal 1	568.4
280 K, Crystal 1	568.6
281.15 K, Crystal 1	570.9
283.05 K, Crystal 1	574.7
283.4 K, Crystal 1	575.9
285.69 K, Crystal 1	580.8
286.39 K, Crystal 1	581.4
287.93 K, Crystal 1	584.1
289.74 K, Crystal 1	587.6
290 K, Crystal 1	588.2
290.2 K, Crystal 1	587.9
292.47 K, Crystal 1	592.6
293.07 K, Crystal 1	594.1
294.75 K, Crystal 1	598.5
296.41 K, Crystal 1	600.8
297.02 K, Crystal 1	602.8
298.15 K, Crystal 1	604.8
299.28 K, Crystal 1	607.2
299.74 K, Crystal 1	606.1
300 K, Crystal 1	608.6
301.54 K, Crystal 1	611.3
303.07 K, Crystal 1	615.7
303.8 K, Crystal 1	617.2
306.05 K, Crystal 1	621.4
306.4 K, Crystal 1	622.2
308.26 K, Crystal 1	624.1
309.65 K, Crystal 1	627.8
310 K, Crystal 1	628.6
310.51 K, Crystal 1	629.5
312.76 K, Crystal 1	633
312.99 K, Crystal 1	634.1
315.01 K, Crystal 1	636.6
316.33 K, Crystal 1	639.9
317.25 K, Crystal 1	644.1
319.5 K, Crystal 1	647.2
319.67 K, Crystal 1	646.8
320 K, Crystal 1	647.5
321.75 K, Crystal 1	651.6
323.01 K, Crystal 1	652.2
324 K, Crystal 1	655.2
326.24 K, Crystal 1	660
326.36 K, Crystal 1	659.5
328.49 K, Crystal 1	664.4
329.71 K, Crystal 1	665.6
330 K, Crystal 1	666.6
330.74 K, Crystal 1	670
332.99 K, Crystal 1	672.4
333.06 K, Crystal 1	673.1
335.24 K, Crystal 1	679.6
336.41 K, Crystal 1	679.8
337.49 K, Crystal 1	684.3
339.74 K, Crystal 1	691.4
339.75 K, Crystal 1	688.9
340 K, Crystal 1	691.3
341.99 K, Crystal 1	697.1
343.1 K, Crystal 1	701.5
346 K, Crystal 1	713.9
346.44 K, Crystal 1	717.2
